# Test results reported in patent US5208344A, “Naphthalenepropionic acid derivatives as anti-inflammatory/antiallergic agents” (American Home Products Corporation, priority 1991, dated 1993).
# Structures can show the parent of a compound that is named as a salt.
# Tested on: ovalbumin-induced bronchoconstriction
# Assay: inhibition of antigen (ovalbumin)-induced bronchoconstriction in anesthetized guinea pigs
# Type: in vivo
# Settings: orally administered 4 hours before induction; guinea pig; 240 min
# Protocol: The compounds of the invention are tested to measure their in vivo ability to inhibit the bronchoconstriction induced in anesthetized guinea pigs by exogenously administered antigen.
# Male Hartley guinea pigs (400-700 gm) are sensitized three weeks prior to antigen (ovalbumin-OA) challenge as follows: each guinea pig is given two intramuscular injections--0.35 ml of Grade V OA, 50 mg/ml, into each hindlimb.
# Guinea pigs, fasted overnight but allowed water adlibitum, are anesthetized with 1.2 g/kg of urethane (intraperitoneal). Supplemental does of […] of urethane are administered intraperitoneally as needed. One carotid artery and one jugular vein are cannulated to allow for the monitoring of blood pressure and the administration of drugs, respectively. A duodenal cannula is inserted for intraduodenal dosing studies. The trachea of each animal is cannulated and connected to a Harvard respirator. […] Respiratory overflow pressure is measured from a side arm off the tracheal cannula which is connected via a Gould or Beckman pressure transducer to a suitable strip chart recorder. […]
# Test compounds are administered intravenously, perorally, or intraduodenally at appropriate times prior to OA challenge. […] Control experiments are used to determine the effects of solvents on the measured parameters, and test data is corrected for any significant solvent effects.
# Bronchoconstriction is assessed as increases in respiratory overflow pressure (cm H2 O). Changes in blood pressure (mm Hg) are also recorded.
# Test compound-induced changes in the respiratory overflow pressure are assessed as percent changes from control experiments. […] The net change in overflow pressure is measured 5 minutes after antigen challenge and is calculated as follows. […] The percent change value for the drug treated group versus the control group is calculated as follows: […]
structure (smiles),measurement,value
"C[C@H](C(=O)O)c1ccc2cc(OCc3ccc4ccccc4n3)ccc2c1 [Example 17, S-(α)-α-Methyl-6-(2-quinolinylmethoxy)-2-naphthaleneacetic acid, tromethanime salt]",ED50 (ovalbumin-induced bronchoconstriction),7 mg/kg
